Results: patent US8367687B2, “Pyrazole derivatives” (Novartis AG, priority 2007, dated 2013)
Where two headings read alike, the source gives them in different places.

What was measured:
Format in all cases: biochemical
hCDK1/B = hCDK1/B (Homo sapiens, UniProt P06493); assay: hCDK1/B
CDK4 = CDK4 (Homo sapiens, UniProt P11802); assay: CDK4 HTRF
CDK2 cyA = CDK2 cyA (Homo sapiens, UniProt P24941); assay: CDK2 cyA IMAP
[1] = Table 1, read-out: CDK2 cyA IMAP
[2] = Table 2, read-out: CDK4 HTRF/ IC50
[3] = Table 2, read-out: CDK2cyA IMAP/ IC50

Sequence of hCDK1/B (P06493 whole entry): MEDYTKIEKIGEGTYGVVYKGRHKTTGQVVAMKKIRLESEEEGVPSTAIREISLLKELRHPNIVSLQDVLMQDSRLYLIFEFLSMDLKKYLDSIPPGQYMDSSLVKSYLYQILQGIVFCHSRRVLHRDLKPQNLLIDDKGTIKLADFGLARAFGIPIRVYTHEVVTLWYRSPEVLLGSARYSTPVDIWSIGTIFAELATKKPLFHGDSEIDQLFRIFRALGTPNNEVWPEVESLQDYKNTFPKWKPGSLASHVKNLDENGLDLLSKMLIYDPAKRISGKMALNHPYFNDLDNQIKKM
Sequence of hCDK1/B (P14635 whole entry partner): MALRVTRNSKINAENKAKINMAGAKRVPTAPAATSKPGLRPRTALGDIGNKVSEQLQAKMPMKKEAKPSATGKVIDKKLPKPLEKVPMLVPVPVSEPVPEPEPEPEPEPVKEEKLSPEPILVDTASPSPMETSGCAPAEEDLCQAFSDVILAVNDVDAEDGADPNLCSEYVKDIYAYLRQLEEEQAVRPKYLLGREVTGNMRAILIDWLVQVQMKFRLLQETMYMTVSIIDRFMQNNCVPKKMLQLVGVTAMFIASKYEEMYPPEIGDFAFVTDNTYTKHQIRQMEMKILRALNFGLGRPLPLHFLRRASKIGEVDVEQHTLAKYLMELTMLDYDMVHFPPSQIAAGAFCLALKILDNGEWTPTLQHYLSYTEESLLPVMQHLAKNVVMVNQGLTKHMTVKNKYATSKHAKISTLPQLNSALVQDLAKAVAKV
Sequence of CDK4 (P11802 whole entry): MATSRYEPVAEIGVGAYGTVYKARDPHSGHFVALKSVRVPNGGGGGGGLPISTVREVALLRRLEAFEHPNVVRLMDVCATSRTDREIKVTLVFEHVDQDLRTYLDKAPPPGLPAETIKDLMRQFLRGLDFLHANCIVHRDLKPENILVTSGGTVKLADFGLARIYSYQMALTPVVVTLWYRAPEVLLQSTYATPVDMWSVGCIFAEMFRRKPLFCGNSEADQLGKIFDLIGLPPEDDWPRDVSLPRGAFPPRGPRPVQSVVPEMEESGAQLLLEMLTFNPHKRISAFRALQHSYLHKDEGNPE
Sequence of CDK4 (P24385 whole entry partner): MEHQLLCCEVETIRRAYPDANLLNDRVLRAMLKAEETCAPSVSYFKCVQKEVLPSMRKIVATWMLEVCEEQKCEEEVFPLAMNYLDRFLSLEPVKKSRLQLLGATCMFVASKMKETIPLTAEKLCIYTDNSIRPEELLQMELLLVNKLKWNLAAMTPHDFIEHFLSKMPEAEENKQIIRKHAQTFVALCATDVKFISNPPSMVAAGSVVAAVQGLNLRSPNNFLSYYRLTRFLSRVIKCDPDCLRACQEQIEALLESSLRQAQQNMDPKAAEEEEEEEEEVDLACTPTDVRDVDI

| SMILES | IC50 (hCDK1/B; Table 1) [µM] | IC50 (CDK4; Table 1, read-out: CDK4 HTRF) [µM] | IC50 (CDK2 cyA; [1]) [µM] | IC50 (hCDK1/B; Table 2) [µM] | IC50 (CDK4; [2]) [µM] | IC50 (CDK2 cyA; [3]) [µM] |
| --- | --- | --- | --- | --- | --- | --- |
| Cc1cccc(CNc2cc(-c3cn[nH]c3C3CCCC3)ccn2)c1 [Example 62] | < 5 | < 5 | < 5 | – | – | – |
| CC(C)CCNc1cc(-c2cn[nH]c2C(C)C)ccn1 [Example 12] | < 5 | < 1 | < 5 | – | – | – |
| CC(CCc1ccccc1)Nc1nccc(-c2c[nH]nc2C(C)C)n1 (stereo not drawn) [Example 155] | – | – | – | < 5 | < 1 | < 5 |
| CC(C)c1[nH]ncc1-c1ccnc(NCCCN2CCCC2)c1 [Example 19] | ≥ 15 | < 10 | ≥ 15 | – | – | – |
| c1cc(-c2cn[nH]c2C2CCCC2)cc(NC2CCC2)n1 [Example 52] | < 5 | < 0.5 | < 0.5 | – | – | – |
| Cc1cccc(CNc2cc(-c3cn[nH]c3C(C)C)ccn2)c1 [Example 49] | < 5 | < 5 | < 5 | – | – | – |
| CC(C)c1n[nH]cc1-c1ccnc(NCc2ccccc2C(F)(F)F)n1 [Example 154] | – | – | – | < 5 | < 5 | < 5 |
| c1ccc2c(c1)CCC2Nc1cc(-c2cn[nH]c2C2CC2)ccn1 (stereo not drawn) [Example 70] | < 5 | < 0.5 | < 5 | – | – | – |
| CC(C)CNc1cc(-c2cn[nH]c2C2CCCC2)ccn1 [Example 56] | < 5 | < 0.5 | < 1 | – | – | – |
| CC(C)(C)c1[nH]ncc1-c1ccnc(NC2CCc3ccccc32)c1 (stereo not drawn) [Example 75] | ≥ 15 | < 15 | ≥ 15 | – | – | – |
| CC(C)c1[nH]ncc1-c1ccnc(NCCCO)c1 [Example 23] | < 5 | < 5 | < 5 | – | – | – |
| Cc1cnc(NC2CCN(C)CC2)nc1-c1c[nH]nc1C(C)C [Example 184] | – | – | – | < 5 | < 0.5 | < 5 |
| Cc1ccc(CNc2cc(-c3cn[nH]c3C(C)C)ccn2)cc1 [Example 28] | < 5 | < 5 | < 5 | – | – | – |
| Cc1n[nH]cc1-c1ccnc(NC2CCN(C)CC2)n1 [Example 90] | – | – | – | < 15 | < 0.5 | < 15 |
| CN1CCC(Nc2cc(-c3cn[nH]c3C(C)(C)C)ccn2)CC1 [Example 77] | ≥ 15 | < 15 | < 15 | – | – | – |
| CC(C)c1n[nH]cc1-c1ccnc(NCc2ccc(N(C)C)cc2)n1 [Example 147] | – | – | – | < 5 | < 5 | < 5 |
| Cc1n[nH]cc1-c1ccnc(NCCCn2ccnc2)n1 [Example 106] | – | – | – | < 5 | < 5 | < 10 |

| SMILES | IC50 (hCDK1/B; Table 1) [µM] | IC50 (CDK4; Table 1, read-out: CDK4 HTRF) [µM] | IC50 (CDK2 cyA; [1]) [µM] | IC50 (hCDK1/B; Table 2) [µM] | IC50 (CDK4; [2]) [µM] | IC50 (CDK2 cyA; [3]) [µM] |
| --- | --- | --- | --- | --- | --- | --- |
| CC(C)CNc1cc(-c2cn[nH]c2C(C)C)ccn1 [Example 9] | < 0.5 | < 0.5 | < 0.5 | – | – | – |
| c1cc(-c2cn[nH]c2C2CCCC2)cc(NC2CCCCC2)n1 [Example 54] | < 5 | < 0.5 | < 1 | – | – | – |
| CC(C)c1[nH]ncc1-c1ccnc(NCC2CCCO2)c1 (stereo not drawn) [Example 13] | < 5 | < 5 | < 10 | – | – | – |
| CC(C)c1[nH]ncc1-c1ccnc(NC2CCN(C)CC2)c1 [Example 78] | < 10 | < 0.5 | < 15 | – | – | – |
| CC(C)c1[nH]ncc1-c1ccnc(NC(C)c2ccccc2)c1 (stereo not drawn) [Example 27] | < 5 | < 1 | < 5 | – | – | – |
| CC(C)c1n[nH]cc1-c1ccnc(NCCN2CCCCC2)n1 [Example 173] | – | – | – | < 15 | < 0.5 | ≥ 15 |
| CC(C)c1n[nH]cc1-c1ccnc(NCCCN(C)c2ccccc2)n1 [Example 142] | – | – | – | < 1 | < 5 | < 5 |
| CC(CN(C)C)Nc1nccc(-c2c[nH]nc2C(C)C)n1 (stereo not drawn) [Example 143] | – | – | – | < 10 | < 0.5 | ≥ 15 |
| Cc1ccccc1CNc1cc(-c2cn[nH]c2C2CC2)ccn1 [Example 68] | < 5 | < 0.1 | < 5 | – | – | – |
| CC(CCCC(C)(C)O)Nc1nccc(-c2c[nH]nc2C(C)C)n1 (stereo not drawn) [Example 145] | – | – | – | < 1 | < 0.5 | < 5 |
| CC(C)c1[nH]ncc1-c1ccnc(NCC2CCCCCC2)c1 [Example 20] | < 5 | < 5 | < 5 | – | – | – |
| CCC(C)Nc1nccc(-c2c[nH]nc2C(C)C)n1 (stereo not drawn) [Example 171] | – | – | – | < 0.5 | < 0.05 | < 0.5 |
| CC(C)c1[nH]ncc1-c1ccnc(NC2CCc3ccccc32)c1 (stereo not drawn) [Example 43] | < 5 | < 0.5 | < 5 | – | – | – |
| Cc1ccccc1CNc1nccc(-c2c[nH]nc2C(C)C)n1 [Example 164] | – | – | – | < 0.5 | < 0.5 | < 1 |
| FC(F)(F)c1ccccc1CNc1cc(-c2cn[nH]c2C2CCCC2)ccn1 [Example 63] | < 5 | < 10 | < 5 | – | – | – |
| CCC(CC)c1[nH]ncc1-c1ccnc(NCc2ccccc2C)c1 [Example 71] | < 5 | < 0.5 | < 5 | – | – | – |
